Data reported in patent publication US7928113B2, “Integrin-binding small molecules” (University of Southern California, priority 2005, dated 2011).
Like-named read-outs stand apart in the source and are kept apart here.

What was measured:
[1] = Cytotoxicity MTT assay, HEY; type: cell-based, human; settings: human, HEY ovarian carcinoma cells; HEY, Table 5
Description: (§1) Cell Culture. Human breast cancer cells (MCF-7, αvβ3—, overexpressed wild-type p53, ER+; MDA-MB 468, p53 mutant, ER+; and MDA-MB-435, αvβ3+, p53 mutant, ER−) and non-small cell lung cancer cells H1975 were obtained from the American Type Cell Culture (Rockville, Md. Q4). The HEY human ovarian carcinoma cell line naturally resistant to cisplatin (CDDP) was kindly provided by Dr. Dubeau (University of Southern California Norris Cancer Center). Cells were maintained as monolayer cultures in RPMI 1640 supplemented with 10% fetal bovine serum (Gemini-Bioproducts, Woodland, Calif.) and 2 mmol/L L-glutamine at 37° C. in a humidified atmosphere of 5% CO2. To remove the adherent cells from the flask for passaging and counting, cells were washed with PBS without calcium or magnesium, incubated with a small volume of 0.25% trypsin-EDTA solution (Sigma, St. Louis, Mo.) for 5 to 10 minutes, and washed with culture medium and centrifuged. All experiments were done using cells in exponential cell growth.
(§2) Cytotoxicity Assay. Cytotoxicity was assessed by 3-(4,5-dimethylthiazol-2-yl)-2,5-diphenyltetrazolium bromide (MTT) assay as previously described.^41, 54 Briefly, cells were seeded in 96-well microtiter plates and allowed to attach. Cells were subsequently treated with a continuous exposure to the corresponding drug for 72 hours. An MTT solution (at a final concentration of 0.5 mg/mL) was added to each well and cells were incubated for 4 hours at 37° C. After removal of the medium, DMSO was added and the absorbance was read at 570 nm. All assays were done in triplicate. The IC50 was then determined for each drug from a plot of log (drug concentration) versus percentage of cell kill.
(§3) Cytotoxicity of Selected Compounds in a Panel of Cancer Cell lines. Initially, we tested all compounds in two breast cancer cell lines MDA-MB-435 and MCF7 with high and low αvβ3 expression as well as in HEY ovarian cancer cell line naturally resistant to cisplatin. […] We observed a remarkable specificity for some of the compounds against these cells. […] Considering the fact that αvβ3 mediates migration, attachment and apoptosis of cancer cells, the combination of these novel high affinity antagonists with conventional cytotoxic drugs should show improved therapeutic benefits without additional toxicity.
(§4) NVX-188 was tested for cytotoxicity by MTT assays in two breast cancer cell lines, MDA-MB-435 with high αvβ3 integrin expression and MCF7 with low αvβ3 integrin expression, and an ovarian cancer cell line, HEY, which was used to test for cell growth inhibition evidence. NVX-188 was further evaluated in a lung cancer cell line, NCI-H1975, and a mouse fibroblast, NIH3T3. NVX-188 was not cytotoxic at the highest dose level tested (20 uM).

[2] = test system: HEY ovarian cancer cell line; assay: Cytotoxicity MTT assay, HEY; type: cell-based, human; settings: for inhibition at 20 µM: Homo sapiens, HEY, 72 h MTT, read-out: % inhibition of cell growth at 20 μM, HEY
Description: as §1, §2, §3, §4

[3] = Cytotoxicity MTT assay, MDA-MB-435; type: cell-based, human; settings: human, MDA-MB-435 breast cancer cells; MDA-MB-435, Table 5
Description: as §1, §2, §3, §4

[4] = test system: MDA-MB-435 breast cancer cell line; assay: Cytotoxicity MTT assay, MDA-MB-435; type: cell-based, human; settings: for inhibition at 20 µM: Homo sapiens, MDA-MB-435, 72 h MTT, read-out: % inhibition of cell growth at 20 μM, 435
Description: as §1, §2, §3, §4

[5] = Cytotoxicity MTT assay, NIH3T3; type: cell-based, mouse; settings: mouse, NIH3T3 fibroblasts; NIH3T3, Table 5
Experimental: as §2, §3, §4

αvβ3 integrin = target: T1, αvβ3 integrin (Homo sapiens, UniProt P05106+P06756); assay: Receptor binding assay, competitive binding with 125I-labeled echistatin on the surface of NCI-H1975 cells; settings: for IC50 / αvβ3 binding affinity (in words): 125I-echistatin competition, NCI-H1975 cells; for fold higher affinity than the parent compound AV26: ratio of αvβ3 binding IC50 to AV26
T1 construct: endogenous in cells; host or cells: NCI-H1975 cells (non-small cell lung cancer), whole cells in suspension
Experimental: Receptor Binding Assay. […] 96-Well multiscreen DV plate (filter pore size: 0.65 μm, Millipore, Billerica, Mass.) was incubated with ^125I-echistatin (50,000 cpm/well) in the presence of increasing concentrations of αvβ3 antagonists. The total incubation volume was adjusted to 200 μL. After the cells were incubated for 3 h at room temperature, the plate was filtered through multiscreen vacuum manifold and washed twice with cold binding buffer. The hydrophilic PVDF filters were collected, and the radioactivity was determined using NaI(Tl) gamma counter (Packard, Meriden, Conn.). The best-fit IC50 values were calculated by fitting the data by nonlinear regression using GraphPad Prism (GraphPad Software, Inc., San Diego, Calif.). Experiments were carried out with triplicate samples.
αvβ3 Binding. Receptor binding affinity of all compounds on the surface of non-small cell lung cancer NCI-H1975 cells was determined in competitive binding experiments using ^125I-labeled echistatin as radioligand and the results are presented in Table 3. […] These compounds represent a novel set of antagonists with diverse structural scaffolds. […] This is an important feature considering the highly electrostatic nature of the RGD peptide binding region of αvβ3. The RGD peptide forms strong electrostatic interactions through its two charged ends with αvβ3 in the αvβ3-cyclic RGD peptide complex crystal structure. Compounds AV3, AV27, and AV32 broadly fall into a RGD mimetic antagonist category, since they have a carboxylate group or amine/amide group, at either ends that can establish similar electrostatic interactions with αvβ3. Additionally, presence of several hydrophilic functional groups on these compounds favors their interaction with the highly electrostatic region of the RGD binding site of αvβ3. Given these interesting structural features, we tested additional structurally close analogues of AV27 and AV32. However, substructure search queries using the core scaffolds of these compounds in our in-house databases yield no close analogues. Structure-activity studies around the core scaffolds of these two compounds might be an alternative option to further optimize their binding affinity towards αvβ3. […] We carried out a limited structure-activity relationship (SAR) analysis on compound AV26 by testing compounds AV34-AV38 in our binding assay (Table 3). The substructure search using the core scaffold of AV26 as a search query retrieved few compounds from our in-house database of 359,224 compounds. The analogues AV34-AV38 were purchased from Chemical Diversity (San Diego, Calif.) and screened for their αvβ3 binding affinity. […] Studies are also underway to selectively deliver cytotoxic agents such as paclitaxel to αvβ3 overexpressing cancers through covalent conjugation.
Receptor binding affinity of NVX-188 was determined through a competitive binding experiment using ^125I-radiolabeled echistatin on NCI-H1975 cells. Increasing concentrations of NVX-188 were added with a fixed amount of echistatin to determine the concentration of NVX-188 that prevents 50% of the echistatin from binding to αvβ3 integrin on the cell surface (i.e., IC50).

[6] = Cytotoxicity MTT assay, MCF7; type: cell-based, human; settings: human, MCF-7 breast cancer cells; MCF-7, Table 5
Description: as §1, §2, §3, §4

[7] = test system: MCF7 breast cancer cell line; assay: Cytotoxicity MTT assay, MCF7; type: cell-based, human; settings: for inhibition at 20 µM: Homo sapiens, MCF7, 72 h MTT, read-out: % inhibition of cell growth at 20 μM, MCF7
Description: as §1, §2, §3, §4

[8] = Cytotoxicity MTT assay, NCI-H1975; type: cell-based, human; settings: human, NCI-H1975 non-small cell lung cancer cells; NCI-H1975, Table 5
Description: as §1, §2, §3, §4

[9] = test system: panel of cancer cell lines; assay: Cytotoxicity MTT assay, statements on the whole panel of cell lines; type: cell-based; settings: for cytotoxicity (in words): MTT, panel of cell lines, highest dose tested 20 uM; for specificity of cytotoxicity among the cell lines (in words): five cell lines of Table 5
Experimental: as §2, §3, §4

NIH3T3 mouse fibroblast = assay: Cytotoxicity MTT assay, NIH3T3; type: cell-based; settings: Table B
Experimental: as §2, §3, §4

[10] = test system: NCI-H1975 lung cancer cell-line; assay: Cytotoxicity MTT assay, NCI-H1975; type: cell-based, human; settings: Table B
Description: as §1, §2, §3, §4

[11] = read-out: αvβ3 binding affinity (IC50)

| IC50 (αvβ3 integrin; [11]) | Compound | IC50 at 72 h [1] | inhibition at 20 µM [2] | IC50 at 72 h [3] | inhibition at 20 µM [4] | IC50 at 72 h [5] | IC50 at 72 h [6] | inhibition at 20 µM [7] | IC50 at 72 h [8] | other results |
| --- | --- | --- | --- | --- | --- | --- | --- | --- | --- | --- |
| 18000 pM | Cc1ccc(NC(=O)CN2C(=O)N/C(=C\c3cccn3-c3cccc(C(=O)O)c3)C2=O)cc1 [AV27] | > 20 µM | 5% | > 20 µM | 0% | > 20 µM | > 20 µM | 0% | > 20 µM |  |
| 240000 pM | CCOc1cc(/C=C2\S/C(=N/c3ccc(C(=O)O)cc3)N(C)C2=O)ccc1O [AV26] | 13 ± 8 µM | 51% | 0.34 ± 0.06 µM | 94% | > 20 µM | > 20 µM | 37% | > 20 µM | fold selectivity for MDA-MB-435 cells as compared to the HEY cells ([4]; cytotoxicity IC50 ratio): ~40 fold; fold selectivity for MDA-MB-435 cells as compared to the MCF7, NIH3T3, and CRL5908 cells ([4]; cytotoxicity IC50 ratio): more than 60 fold; cytotoxicity (in words) [9]: considerable cytotoxicity in a breast cancer cell line |
| 24000 pM | CCOc1ccc(/N=C2/S/C(=C\c3ccc(N(C)C)cc3)C(=O)N2CC)cc1 [AV35] | > 20 µM | 17% | > 20 µM | 26% | > 20 µM | > 20 µM | 36% | > 20 µM | fold higher affinity than the parent compound AV26 (αvβ3 integrin): 10 fold |
| 52000 pM | Nc1nc(O)c2nc(CCCNc3ccc(C(=O)NC(CCC(=O)O)C(=O)O)cc3)cnc2n1 (centres unmarked) [AV3] | > 20 µM | 0% | > 20 µM | 0% | > 20 µM | > 20 µM | 0% | > 20 µM |  |

Second part, the compound before the results:

| Compound | IC50 (αvβ3 integrin; [11]) | IC50 at 72 h [1] | inhibition at 20 µM [2] | IC50 at 72 h [3] | inhibition at 20 µM [4] | IC50 at 72 h [5] | IC50 at 72 h [6] | inhibition at 20 µM [7] | IC50 at 72 h [8] | other results |
| --- | --- | --- | --- | --- | --- | --- | --- | --- | --- | --- |
| CS(=O)(=O)Nc1ccc(C2=NN(C(=O)CCCC(=O)O)C(c3ccco3)C2)cc1 (centres unmarked) [AV32] | 605000 pM | > 20 µM | 18% | > 20 µM | 0% | > 20 µM | > 20 µM | 26% | > 20 µM |  |
| O=C(O)c1ccc(-c2ccc(/C=N/Nc3nc(Nc4ccccc4)nc(Nc4ccccc4)n3)o2)cc1 [AV10] |  | 21 ± 3 µM | 73% | 18 ± 9 µM | 93% |  | > 20 µM | 62% |  |  |
| CN(C)c1ccc(/C=C2\SC(=Nc3ccc(O)cc3)NC2=O)cc1 [AV34] |  | > 20 µM | 25% | 2.8 ± 0.01 µM | 65% |  | > 20 µM | 31% |  | specificity of cytotoxicity among the cell lines (in words) [9]: A similar trend, but smaller magnitude |
| COc1cc(Cl)c(/C=C2\S/C(=N/c3cccc(C(=O)O)c3)N(C)C2=O)cc1OC [AV38] |  | > 20 µM | 0% | > 20 µM | 0% | > 20 µM | > 20 µM | 18% | > 20 µM | IC50 ([2]; Table B): > 20 µM; IC50 ([4]; Table B): > 20 µM; IC50 (NIH3T3 mouse fibroblast): > 20 µM; αvβ3 binding affinity (in words) (αvβ3 integrin): high-affinity binding characteristics at picomolar concentrations; αvβ3 binding affinity (in words) (αvβ3 integrin; listed as NVX-188): active at picomolar concentrations; IC50 (αvβ3 integrin; same value restated in pM, read-out: αvβ3 integrin binding affinity (IC50)): 30 pM; fold higher affinity than the parent compound AV26 (αvβ3 integrin): 800 fold; cytotoxicity (in words) [9]: not cytotoxic; IC50 ([7]; Table B): > 20 µM; IC50 [10]: > 20 µM |
| CC1=NN(c2ccc(C(=O)O)cc2)C(=O)/C1=C/c1ccc(-c2ccc(S(N)(=O)=O)cc2)o1 [AV19] |  | > 20 µM | 6% | > 20 µM | 30% |  | 19 ± 4 µM | 66% |  |  |
| O=C(O)c1cccc(-c2ccc(/C=N/Nc3nc4nonc4nc3Nc3ccc(F)cc3)o2)c1 [AV30] |  | 7 ± 0.42 µM | 90% | 8 ± 0.5 µM | 71% | 13 ± 3 µM | 19 ± 4 µM | 52% | > 20 µM | specificity of cytotoxicity among the cell lines (in words) [9]: a profile very similar in MDA-MB-435, HEY, and NIH3T3 cells, but was significantly less active against MCF-7 and NCI-H1975 cells |
| O=C(CSc1nnnn1-c1ccc(O)cc1)NCc1cccc(C(=O)O)c1 [AV23] |  |  | 0% |  | 9% |  |  | 34% |  |  |
